A word on the EC50: it is the concentration at which the effect is half-maximal. What is called inhibition is how much of the control response was suppressed. A lower inhibition goes with little suppression. What is called MIC is the lowest concentration that inhibits growth of the organism. Read a high MIC as weaker potency. By IC50 is commonly meant the point on the concentration scale where inhibition reaches its midpoint. The low end stands for greater potency in that assay, the high end for weaker potency in that assay.

Each structure is given as a SMILES string. ≈ marks a conversion by molar mass, not a printed value.

The text below walks through data of ChEMBL document CHEMBL1777727, “The role of the 4''-hydroxyl on motilin agonist potency in the 9-dihydroerythromycin series” (Bioorg Med Chem Lett, 2011).

The target in one data set is Motilin receptor (Oryctolagus cuniculus, UniProt A5A4K8). Kind of data set: Agonist activity at motilin receptor in rabbit smooth muscle assessed as maximal possible tissue contraction. The format is functional.
Motilin receptor, sequence (A5A4K8 whole entry): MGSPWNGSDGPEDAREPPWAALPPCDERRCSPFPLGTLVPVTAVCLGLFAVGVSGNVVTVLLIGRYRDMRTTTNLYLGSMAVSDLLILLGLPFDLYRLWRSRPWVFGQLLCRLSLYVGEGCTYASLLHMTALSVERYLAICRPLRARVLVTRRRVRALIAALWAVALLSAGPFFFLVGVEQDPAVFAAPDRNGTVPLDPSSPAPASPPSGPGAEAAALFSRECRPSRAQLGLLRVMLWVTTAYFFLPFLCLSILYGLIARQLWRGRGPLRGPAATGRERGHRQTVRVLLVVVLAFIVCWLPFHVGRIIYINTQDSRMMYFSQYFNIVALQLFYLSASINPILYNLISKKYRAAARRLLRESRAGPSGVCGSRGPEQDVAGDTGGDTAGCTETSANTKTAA
Data set [1] has as its target T1, hERG (KCNH2) (Homo sapiens, UniProt Q12809). Kind of data set: Inhibition of human ERG at 300 uM.
Data set [2] deals with Motilin receptor (Oryctolagus cuniculus) (UniProt A5A4K8). In words: Agonist activity at motilin receptor in rabbit smooth muscle assessed as tachyphylaxis at EC90 concentration after 4th dose. Format: functional.
Motilin receptor (Oryctolagus cuniculus), sequence (A5A4K8 as listed by the source): as the sequence (A5A4K8 whole entry) above
In data set [3] the target is T1, hERG (KCNH2). In words: Inhibition of human ERG at 30 uM.
The test system of the next data set is Streptococcus pneumoniae. In words: Antimicrobial activity against erythromycin-sensitive Streptococcus pneumoniae ATCC 6301. The format is functional.
The target of data set [4] is Voltage-gated inwardly rectifying potassium channel KCNH2 (Homo sapiens, UniProt Q12809). Kind of data set: Inhibition of human ERG.
Voltage-gated inwardly rectifying potassium channel KCNH2, sequence (Q12809 whole entry): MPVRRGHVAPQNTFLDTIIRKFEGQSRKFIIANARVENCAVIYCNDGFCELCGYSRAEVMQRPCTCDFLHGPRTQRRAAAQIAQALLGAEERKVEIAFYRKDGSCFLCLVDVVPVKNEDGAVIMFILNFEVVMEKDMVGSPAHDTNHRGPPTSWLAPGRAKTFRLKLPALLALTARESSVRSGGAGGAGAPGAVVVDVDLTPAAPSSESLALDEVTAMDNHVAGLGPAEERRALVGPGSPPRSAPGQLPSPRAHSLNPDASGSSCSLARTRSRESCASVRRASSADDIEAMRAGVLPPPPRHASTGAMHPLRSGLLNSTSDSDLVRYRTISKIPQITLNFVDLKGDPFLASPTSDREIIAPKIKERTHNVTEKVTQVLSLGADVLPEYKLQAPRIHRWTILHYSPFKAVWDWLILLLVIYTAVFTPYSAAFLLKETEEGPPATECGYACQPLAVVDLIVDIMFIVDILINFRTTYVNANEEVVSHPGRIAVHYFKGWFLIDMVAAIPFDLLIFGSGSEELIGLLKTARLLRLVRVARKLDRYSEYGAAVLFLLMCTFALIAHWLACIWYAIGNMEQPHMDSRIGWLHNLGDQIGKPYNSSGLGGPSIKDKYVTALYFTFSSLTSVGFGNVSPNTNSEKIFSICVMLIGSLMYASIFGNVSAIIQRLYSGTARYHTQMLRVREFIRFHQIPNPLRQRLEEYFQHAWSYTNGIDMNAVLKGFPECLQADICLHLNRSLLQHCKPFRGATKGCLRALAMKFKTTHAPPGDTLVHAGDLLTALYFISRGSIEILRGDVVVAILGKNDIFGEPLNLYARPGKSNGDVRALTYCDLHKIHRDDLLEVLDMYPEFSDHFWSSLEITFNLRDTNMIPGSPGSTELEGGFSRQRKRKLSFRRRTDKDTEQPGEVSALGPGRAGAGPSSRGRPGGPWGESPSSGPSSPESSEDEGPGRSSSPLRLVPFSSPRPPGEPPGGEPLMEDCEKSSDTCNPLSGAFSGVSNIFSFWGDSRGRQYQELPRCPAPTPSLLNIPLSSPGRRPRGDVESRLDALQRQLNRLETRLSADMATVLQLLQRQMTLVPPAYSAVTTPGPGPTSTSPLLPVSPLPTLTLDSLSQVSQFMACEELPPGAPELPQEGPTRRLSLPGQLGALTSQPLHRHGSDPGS

T1 sequence (Q12809 whole entry): as above

With `CC[C@H]1OC(=O)[C@H](C)[C@@H](O[C@H]2C[C@@](C)(OC)C[C@H](C)O2)[C@H](C)[C@@H](O[C@@H]2O[C@H](C)C[C@H](N(C)CC(=O)NC)[C@H]2O)[C@](C)(O)C[C@@H](C)[C@H](O)[C@H](C)[C@@H](O)[C@]1(C)O`, the EC50 at Motilin receptor is more than 5000 nM.

As to `CC[C@H]1OC(=O)[C@H](C)[C@@H](O[C@H]2C[C@@](C)(OC)[C@@H](O)[C@H](C)O2)[C@H](C)[C@@H](O[C@@H]2O[C@H](C)C[C@H](N(C)C(C)C)[C@H]2O)[C@](C)(O)C[C@@H](C)[C@H](OCC(N)=O)[C@H](C)[C@@H](O)[C@]1(C)O`, testing at 300 µM against hERG (KCNH2) [1] gave an inhibition of 29%.

For the compound `CC[C@H]1OC(=O)[C@H](C)[C@@H](O[C@H]2C[C@@](C)(OC)CC(C)O2)[C@H](C)[C@@H](O[C@@H]2O[C@H](C)C[C@H](N(C)CC)[C@H]2O)C2(C)CC(C)=C(O2)[C@H](C)[C@@H](O)[C@H]1C` (single isomer, unassigned), in data set [2], the Activity stood at 9%.

Take `CC[C@H]1OC(=O)[C@H](C)[C@@H](O[C@H]2C[C@@](C)(OC)[C@@H](O)[C@H](C)O2)[C@H](C)[C@@H](O[C@@H]2O[C@H](C)C[C@H](N(C)CCO)[C@H]2O)[C@](C)(O)C[C@@H](C)[C@H](O)[C@H](C)[C@@H](O)[C@]1(C)O`: at Motilin receptor, the EC50 worked out at 210 nM.

For `CC[C@H]1OC(=O)[C@H](C)[C@@H](O[C@H]2C[C@@](C)(OC)C[C@H](C)O2)[C@H](C)[C@@H](O[C@@H]2O[C@H](C)C[C@H](N(C)CC(C)(C)O)[C@H]2O)[C@](C)(O)C[C@@H](C)[C@H](O)[C@H](C)[C@@H](O)[C@]1(C)O`, on hERG (KCNH2) [3], the inhibition at 30 µM turned out to be 86%. In addition, the minimal inhibitory concentration (MIC) against Streptococcus pneumoniae amounted to 128 µg/mL (≈ 165 µM). Further, at 300 µM the inhibition against hERG (KCNH2) [1] was 100%. Besides, the EC50 at Motilin receptor turned out to be 24 nM.

`CC[C@H]1OC(=O)[C@H](C)[C@@H](O[C@H]2C[C@@](C)(OC)[C@@H](O)[C@H](C)O2)[C@H](C)[C@@H](O[C@@H]2O[C@H](C)C[C@H](N(C)C3CCC3)[C@H]2O)[C@](C)(O)C[C@@H](C)[C@H](O)[C@H](C)[C@@H](O)[C@]1(C)O`: the EC50 at Motilin receptor worked out at 350 nM.

With `CC[C@H]1OC(=O)[C@H](C)[C@@H](O[C@H]2C[C@@](C)(OC)C[C@H](C)O2)[C@H](C)[C@@H](O[C@@H]2O[C@H](C)C[C@H](N(C)C3CCC3)[C@H]2O)[C@](C)(O)C[C@@H](C)[C@H](O)[C@H](C)[C@@H](O)[C@]1(C)O`, on hERG (KCNH2) [3], the inhibition at 30 µM is 92%. The same compound returned a minimum inhibitory concentration (MIC) against Streptococcus pneumoniae of more than 128 µg/mL. Besides, 300 µM produced 100% inhibition against hERG (KCNH2) [1]. Moreover, the EC50 at Motilin receptor came to 120 nM.

Consider `CC[C@H]1OC(=O)[C@H](C)[C@@H](O[C@H]2C[C@@](C)(OC)C[C@H](C)O2)[C@H](C)[C@@H](O[C@@H]2O[C@H](C)C[C@H](N(C)C(C)C)[C@H]2O)[C@](C)(O)C[C@@H](C)[C@H](OCC(=O)N(C)C)[C@H](C)[C@@H](O)[C@]1(C)O`, for which at 30 µM the inhibition at hERG (KCNH2) [3] was 50%. In addition, 128 µg/mL (≈ 154 µM) was the least that counted as inhibitory against Streptococcus pneumoniae (MIC). Further, 300 µM produced 100% inhibition on hERG (KCNH2) [1]. Further, on Motilin receptor, the concentration giving a half-maximal response (EC50) was found to be 190 nM.

As to `CC[C@H]1OC(=O)[C@H](C)[C@@H](O[C@H]2C[C@@](C)(OC)[C@@H](O)[C@H](C)O2)[C@H](C)[C@@H](O[C@@H]2O[C@H](C)C[C@H](N(C)C(C)C)[C@H]2O)[C@](C)(O)C[C@@H](C)[C@H](OCC(=O)N(C)C)[C@H](C)[C@@H](O)[C@]1(C)O`, the inhibition at 300 µM on hERG (KCNH2) [1] stood at 51%.

In the case of `CC[C@H]1OC(=O)[C@H](C)[C@@H](O[C@H]2C[C@@](C)(OC)C[C@H](C)O2)[C@H](C)[C@@H](O[C@@H]2O[C@H](C)C[C@H](N(C)CCO)[C@H]2O)[C@](C)(O)C[C@@H](C)[C@H](O)[C@H](C)[C@@H](O)[C@]1(C)O`, in data set [2], the Activity is 94%. At hERG (KCNH2) [3], this compound gave an inhibition at 30 µM of 68%. The compound also showed an MIC in the data set on Streptococcus pneumoniae of 2 µg/mL (≈ 2.67 µM). Moreover, the concentration for a half-maximal effect (EC50) at Motilin receptor was found to be 63 nM.

Take `CC[C@H]1OC(=O)[C@H](C)[C@@H](O[C@H]2C[C@@](C)(OC)[C@@H](O)[C@H](C)O2)[C@H](C)[C@@H](O[C@@H]2O[C@H](C)C[C@H](N(C)C(C)C)[C@H]2O)[C@]2(C)CC(C)=C(O2)[C@H](C)C(=O)[C@]1(C)OC`: in data set [2], the Activity stood at 22%.

As to `CC[C@H]1OC(=O)[C@H](C)[C@@H](O[C@H]2C[C@@](C)(OC)C[C@H](C)O2)[C@H](C)[C@@H](O[C@@H]2O[C@H](C)C[C@H](N(C)C(C)C)[C@H]2O)[C@](C)(O)C[C@@H](C)[C@H](OCC(=O)NC)[C@H](C)[C@@H](O)[C@]1(C)O`, in data set [4], half-maximal inhibition (IC50) was put at 30000 nM. Besides, the inhibition at 30 µM against hERG (KCNH2) [3] was 57%. Inhibition of growth against Streptococcus pneumoniae (MIC) required 128 µg/mL (≈ 156 µM). The inhibition at 300 µM at hERG (KCNH2) [1] is 97%. In addition, the EC50 on Motilin receptor was 17 nM.

For the compound `CC[C@H]1OC(=O)[C@H](C)[C@@H](O[C@H]2C[C@@](C)(OC)[C@@H](O)[C@H](C)O2)[C@H](C)[C@@H](O[C@@H]2O[C@H](C)C[C@H](N(C)C[C@H](C)O)[C@H]2O)[C@](C)(O)C[C@@H](C)[C@H](O)[C@H](C)[C@@H](O)[C@]1(C)O`, the EC50 on Motilin receptor was found to be 360 nM.

At hERG (KCNH2) [3], `CC[C@H]1OC(=O)[C@H](C)[C@@H](O[C@H]2C[C@@](C)(OC)C[C@H](C)O2)[C@H](C)[C@@H](O[C@@H]2O[C@H](C)C[C@H](N(C)C(C)C)[C@H]2O)[C@](C)(O)C[C@@H](C)[C@H](OCC(N)=O)[C@H](C)[C@@H](O)[C@]1(C)O` came in with an inhibition at 30 µM of 28%. Also, the MIC with Streptococcus pneumoniae was more than 128 µg/mL. Further, the inhibition at 300 µM on hERG (KCNH2) [1] came to 86%. In addition, the EC50 on Motilin receptor is 36 nM.

Regarding `CC[C@H]1OC(=O)[C@H](C)[C@@H](O[C@H]2C[C@@](C)(OC)[C@@H](O)[C@H](C)O2)[C@H](C)[C@@H](O[C@@H]2O[C@H](C)C[C@H](N(C)CC(C)(C)O)[C@H]2O)[C@](C)(O)C[C@@H](C)[C@H](O)[C@H](C)[C@@H](O)[C@]1(C)O`, the concentration for a half-maximal effect (EC50) at Motilin receptor turned out to be 100 nM.

With `CC[C@H]1OC(=O)[C@H](C)[C@@H](O[C@H]2C[C@@](C)(OC)C[C@H](C)O2)[C@H](C)[C@@H](O[C@@H]2O[C@H](C)C[C@H](N(C)C(C)C)[C@H]2O)[C@](C)(O)C[C@@H](C)[C@H](O)[C@H](C)[C@@H](O)[C@]1(C)O`, the Activity in data set [2] was determined as 88%. At hERG (KCNH2) [3], this compound gave an inhibition at 30 µM of 74%. Also, the MIC against Streptococcus pneumoniae was 64 µg/mL (≈ 85.6 µM). Also, on Motilin receptor, the concentration giving a half-maximal response (EC50) is 59 nM.

The compound `CC[C@H]1OC(=O)[C@H](C)[C@@H](O[C@H]2C[C@@](C)(OC)C[C@H](C)O2)[C@H](C)[C@@H](O[C@@H]2O[C@H](C)C[C@H](N(C)C[C@H](C)O)[C@H]2O)[C@](C)(O)C[C@@H](C)[C@H](O)[C@H](C)[C@@H](O)[C@]1(C)O` registered an inhibition at 30 µM on hERG (KCNH2) [3] of 89%. Besides, it took 128 µg/mL (≈ 168 µM) to inhibit growth against Streptococcus pneumoniae (MIC). The compound also displayed an inhibition at 300 µM on hERG (KCNH2) [1] of 100%. Moreover, the EC50 on Motilin receptor amounted to 140 nM.
